Reference: US9556228B2 (Universitaet Leipzig, priority 2011, dated 2017)
≈ marks a conversion by molar mass, not a printed value. Peptide text beside a SMILES is read from it. * marks the point of attachment. Orn(α-tetramethylguanidino) = CN(C)C(=N[C@@H](CCCN)C(=O)*)N(C)C

Key:
S. aureus DSM 6247 [1] = type: cell-based, Staphylococcus aureus
Method: (§1) The minimum inhibitory concentrations (MIC) of the peptides were determined in a double assay of triplicates using a positive control sample (gentamycin) and a negative control sample (0.9% NaCl solution), according to a modified protocol from Wiegand et al. (Wiegand, 2008).
(§2) For this purpose, the peptides were dissolved in water and were diluted in a double dilution series with 1/8 MH (eight-fold diluted Mueller-Hinton-Medium—2.6 g/L, Merck) in sterile 96-well, plates (Greiner Bio-One GmbH) in twelve dilution steps from 128 μg/mL to 62.5 ng/mL. Overnight cultures were adjusted using ⅛ MHB to approximately 1.5×10^7 colony forming units per mL. Of these, 50 μL of peptide solution per well was mixed with 50 μL bacteria solution each to obtain an initial concentration of […] bacteria per well. After 20 hours of incubation at 37′C, the absorption was determined at 595 nm (microplate reader, Wallac Victor3, Perkin Elmer). The minimum inhibitory concentration was identified as the lowest peptide concentration at which no bacterial growth could be detected.
(§3) In the experiment, the antibacterial activity of the peptides according to the invention in relation to the following bacterial strains was analyzed: Pseudomonas aeruginosa PAO1 (wt strain), Pseudomonas aeruginosa DSM 9644, Staphylococcus aureus DSM 1104/ATCC 25923, Staphylococcus aureus ATCC 6247, Escherichia coli UB 1005 (F—, nalA37, metB1) and Escherichia coli ATCC25922.

[2] = system: Pseudomonas aeruginosa DSM 9644; type: cell-based
Method: as §1
(§4) […] Overnight cultures were adjusted using ⅛ MHB to approximately 1.5×10^7 colony forming units per mL. Of these, 50 μL of peptide solution per well was mixed with 50 μL bacteria solution each to obtain an initial concentration of […] bacteria per well. After 20 hours of incubation at 37′C, the absorption was determined at 595 nm (microplate reader, Wallac Victor3, Perkin Elmer). The minimum inhibitory concentration was identified as the lowest peptide concentration at which no bacterial growth could be detected.
as §3

E. coli DSM 1103 = type: cell-based, Escherichia coli
Method: as §1, §2

in vitro = settings: for half-life: mouse
Method: The serum stability of selected apidaecin derivatives was also measured.

K. pneumoniae DSM 681 = type: cell-based
Method: as §1, §4

S. aureus DSM 6247 [3] = type: cell-based, Staphylococcus aureus; remark: listed apart in the source
[4] = system: Escherichia coli ATCC25922; type: cell-based
E. coli BL21AI = type: cell-based, Escherichia coli

| Compound | MIC S. aureus DSM 6247 (S. aureus DSM 6247 [1]) [µg/mL] | MIC P. aeruginosa PAO DSM 9644 [2] [µg/mL] | MIC E. coli DSM 1103 (E. coli DSM 1103) [µg/mL] | half-life (in vitro; 100% mouse serum) [h] | MIC K. pneumoniae DSM 681 TSB (K. pneumoniae DSM 681) [µg/mL] | MIC S. aureus DSM 6247 MHB (S. aureus DSM 6247 [3]) [µg/mL] | MIC E. coli ATCC 25922 TSB [4] [µg/mL] | MIC P. aeruginosa DSM 9644 TSB [2] [µg/mL] | MIC E. coli BL21AI TSB (E. coli BL21AI) [µg/mL] | peptide remaining, printed in the column t1/2 100% serum (in vitro; 100% mouse serum, after 2 hours) [% after] | half-life (in vitro; 25% mouse serum) [h] | fragment found (100% mouse serum) |
| --- | --- | --- | --- | --- | --- | --- | --- | --- | --- | --- | --- | --- |
| CC[C@H](C)[C@H](NC(=O)[C@H](Cc1ccc(O)cc1)NC(=O)[C@@H](NC(=O)[C@@H]1CCCN1C(=O)[C@H](CCCNC(=N)N)NC(=O)[C@H](CC(N)=O)NC(=O)[C@H](CC(N)=O)NC(=O)[C@H](CCCN)N=C(N(C)C)N(C)C)C(C)C)C(=O)N1CCC[C@H]1C(=O)N[C@@H](CCCNC(=N)N)C(=O)N1CCC[C@H]1C(=O)N[C@@H](CCCNC(=N)N)C(=O)N1CCC[C@H]1C(=O)N1CCC[C@H]1C(=O)N[C@@H](Cc1c[nH]cn1)C(=O)N1CCC[C@H]1C(=O)N[C@@H](CCCNC(=N)N)C(=O)N[C@@H](CCCNC(=N)N)C(=O)O [compound 84] ({Orn(α-tetramethylguanidino)}-NNRPVYIPRPRPPHPRR-OH) | 8 (≈ 3.43 µM) | 64 (≈ 27.4 µM) | 4 (≈ 1.71 µM) | – | – | – | – | – | – | – | – | – |
| CC[C@H](C)[C@H](NC(=O)[C@H](Cc1ccc(O)cc1)NC(=O)[C@@H](NC(=O)[C@@H]1CCCN1C(=O)[C@H](CCCNC(=N)N)NC(=O)[C@H](CC(N)=O)NC(=O)[C@H](Cc1c[nH]c2ccccc12)NC(=O)[C@H](CCCN)N=C(N(C)C)N(C)C)C(C)C)C(=O)N1CCC[C@H]1C(=O)N[C@@H](CCCNC(=N)N)C(=O)N1CCC[C@H]1C(=O)N[C@@H](CCCNC(=N)N)C(=O)N1CCC[C@H]1C(=O)N1CCC[C@H]1C(=O)N[C@@H](Cc1c[nH]cn1)C(=O)N1CCC[C@H]1C(=O)N[C@@H](CCCNC(=N)N)C(=O)N[C@@H](CC(C)C)C(=O)O [compound 85] ({Orn(α-tetramethylguanidino)}-WNRPVYIPRPRPPHPRL-OH; N-terminus and C-terminus assumed) | 16 (≈ 6.77 µM) | 16 (≈ 6.77 µM) | 4 (≈ 1.69 µM) | 3.95 ± 0.25 | 2 (≈ 0.846 µM) | 4 (≈ 1.69 µM) | 4 (≈ 1.69 µM) | 8 to 16 | 2 (≈ 0.846 µM) | – | – | – |
| CC[C@H](C)[C@H](NC(=O)[C@H](Cc1ccc(O)cc1)NC(=O)[C@@H](NC(=O)[C@@H]1CCCN1C(=O)[C@H](CCCNC(=N)N)NC(=O)[C@H](CC(N)=O)NC(=O)[C@H](CC(N)=O)NC(=O)[C@H](CCCN)N=C(N(C)C)N(C)C)C(C)C)C(=O)N1CCC[C@H]1C(=O)N[C@@H](CCCNC(=N)N)C(=O)N1CCC[C@H]1C(=O)N[C@@H](CCCNC(=N)N)C(=O)N[C@@H](CCCNC(=N)N)C(=O)N1CCC[C@H]1C(=O)N[C@@H](Cc1c[nH]cn1)C(=O)N1CCC[C@H]1C(=O)N[C@@H](CCCNC(=N)N)C(=O)N[C@@H](CC(C)C)C(=O)O [compound 86] ({Orn(α-tetramethylguanidino)}-NNRPVYIPRPRRPHPRL-OH) | 32 (≈ 13.6 µM) | 32 (≈ 13.6 µM) | 8 (≈ 3.4 µM) | – | – | – | – | – | – | – | – | – |
| CC[C@H](C)[C@H](NC(=O)[C@H](Cc1ccc(O)cc1)NC(=O)[C@@H](NC(=O)[C@@H]1CCCN1C(=O)[C@H](CCCNC(=N)N)NC(=O)[C@H](CC(N)=O)NC(=O)[C@H](Cc1c[nH]c2ccccc12)NC(=O)[C@H](CCCN)N=C(N(C)C)N(C)C)C(C)C)C(=O)N1CCC[C@H]1C(=O)N[C@@H](CCCNC(=N)N)C(=O)N1CCC[C@H]1C(=O)N[C@@H](CCCNC(=N)N)C(=O)N[C@@H](CCCNC(=N)N)C(=O)N1CCC[C@H]1C(=O)N[C@@H](Cc1c[nH]cn1)C(=O)N1CCC[C@H]1C(=O)N[C@@H](CCCNC(=N)N)C(=O)N[C@@H](CC(C)C)C(=O)O [compound 87] ({Orn(α-tetramethylguanidino)}-WNRPVYIPRPRRPHPRL-OH; N-terminus and C-terminus assumed) | 16 (≈ 6.6 µM) | 8 (≈ 3.3 µM) | 8 (≈ 3.3 µM) | – | 4 to 8 | 4 (≈ 1.65 µM) | 8 (≈ 3.3 µM) | 8 (≈ 3.3 µM) | 8 (≈ 3.3 µM) | 0 | – | – |
| CC[C@H](C)[C@H](NC(=O)[C@H](Cc1ccc(O)cc1)NC(=O)[C@@H](NC(=O)[C@@H]1CCCN1C(=O)[C@H](CCCNC(=N)N)NC(=O)[C@H](CC(N)=O)NC(=O)[C@H](CC(N)=O)NC(=O)[C@H](CCCN)N=C(N(C)C)N(C)C)C(C)C)C(=O)N1CCC[C@H]1C(=O)N[C@@H](CCCNC(=N)N)C(=O)N1CCC[C@H]1C(=O)N[C@@H](CCCNC(=N)N)C(=O)N[C@@H](CCCNC(=N)N)C(=O)N1CCC[C@H]1C(=O)N[C@@H](Cc1c[nH]cn1)C(=O)N1CCC[C@H]1C(=O)N[C@@H](CCCNC(=N)N)C(=O)N[C@@H](CC(C)C)C(N)=O [compound 88] ({Orn(α-tetramethylguanidino)}-NNRPVYIPRPRRPHPRL-NH2) | 16 (≈ 6.81 µM) | 16 (≈ 6.81 µM) | 8 (≈ 3.4 µM) | – | – | – | – | – | – | – | – | – |
| CC[C@H](C)[C@H](NC(=O)[C@H](Cc1ccc(O)cc1)NC(=O)[C@@H](NC(=O)[C@@H]1CCCN1C(=O)[C@H](CCCNC(=N)N)NC(=O)[C@H](CC(N)=O)NC(=O)[C@H](Cc1c[nH]c2ccccc12)NC(=O)[C@H](CCCN)N=C(N(C)C)N(C)C)C(C)C)C(=O)N1CCC[C@H]1C(=O)N[C@@H](CCCNC(=N)N)C(=O)N1CCC[C@H]1C(=O)N[C@@H](CCCNC(=N)N)C(=O)N[C@@H](CCCNC(=N)N)C(=O)N1CCC[C@H]1C(=O)N[C@@H](Cc1c[nH]cn1)C(=O)N1CCC[C@H]1C(=O)N[C@@H](CCCNC(=N)N)C(=O)N[C@@H](CC(C)C)C(N)=O [compound 89] ({Orn(α-tetramethylguanidino)}-WNRPVYIPRPRRPHPRL-NH2; N-terminus and C-terminus assumed) | 8 to 16 | 4 (≈ 1.65 µM) | 8 (≈ 3.3 µM) | – | >64 | 2 (≈ 0.826 µM) | 16 (≈ 6.61 µM) | 8 (≈ 3.3 µM) | 8 (≈ 3.3 µM) | – | 0.267 ± 0.0167 | – |
| CC[C@H](C)[C@H](NC(=O)[C@H](Cc1ccc(O)cc1)NC(=O)[C@@H](NC(=O)[C@@H]1CCCN1C(=O)[C@H](CCCNC(=N)N)NC(=O)[C@H](CC(N)=O)NC(=O)[C@H](CC(N)=O)NC(=O)[C@H](CCCN)N=C(N(C)C)N(C)C)C(C)C)C(=O)N1CCC[C@H]1C(=O)N[C@@H](CCCNC(=N)N)C(=O)N1CCC[C@H]1C(=O)N[C@@H](CCCNC(=N)N)C(=O)N1CCC[C@H]1C(=O)N1CCC[C@H]1C(=O)N[C@@H](Cc1c[nH]cn1)C(=O)N1CCC[C@H]1C(=O)N[C@@H](CCCNC(=N)N)C(=O)N[C@@H](CC(C)C)C(N)=O [compound 92] ({Orn(α-tetramethylguanidino)}-NNRPVYIPRPRPPHPRL-NH2; N-terminus and C-terminus assumed) | – | – | – | – | 2 (≈ 0.873 µM) | 8 (≈ 3.49 µM) | 2 (≈ 0.873 µM) | 8 (≈ 3.49 µM) | 1 (≈ 0.437 µM) | – | 0.25 ± 0.0167 | – |
| CC[C@H](C)[C@H](NC(=O)[C@H](Cc1ccc(O)cc1)NC(=O)[C@@H](NC(=O)[C@@H]1CCCN1C(=O)[C@H](CCCNC(=N)N)NC(=O)[C@H](CC(N)=O)NC(=O)[C@H](CC(N)=O)NC(=O)[C@H](CCCN)N=C(N(C)C)N(C)C)C(C)C)C(=O)N1CCC[C@H]1C(=O)N[C@@H](CCCNC(=N)N)C(=O)N1CCC[C@H]1C(=O)N[C@@H](CCCNC(=N)N)C(=O)N1CCC[C@H]1C(=O)N1CCC[C@H]1C(=O)N[C@@H](Cc1c[nH]cn1)C(=O)N1CCC[C@H]1C(=O)N[C@@H](CCCNC(=N)N)C(=O)N[C@@H](CC(C)C)C(=O)O [compound 93] ({Orn(α-tetramethylguanidino)}-NNRPVYIPRPRPPHPRL-OH; N-terminus and C-terminus assumed) | – | – | – | 5.83 ± 0.567 | 2 (≈ 0.873 µM) | 16 to 32 | 4 (≈ 1.75 µM) | 16 (≈ 6.98 µM) | 1 (≈ 0.436 µM) | – | – | – |
| gu-ONNRPVYIPRPRPPHPRL-OH | – | – | – | – | – | – | – | – | – | – | – | gu-O1-R17 |
| gu-OWNRPVYIPRPRPPHPRL-OH | – | – | – | – | – | – | – | – | – | – | – | gu-O1-R17 |
